{
  "source": "paper PMC9393165",
  "about": "(Scientific Reports, 2022)",
  "key": {"[1]": {"assay": "Early-morning blood pressure and pulse rate in kidney transplant recipients", "type": "in vivo, human", "details": "for Diastolic blood pressure / Pulse rate: diltiazem 30 mg every 12 h", "experimental": "All patients received a fixed dose of omeprazole 40 mg/day.\nFor calculation of AUC/D and C0/D, values of AUC and C0 were dose-adjusted by dividing the observed values by the dose recorded on the day of blood collection. Early-morning blood pressures were measured on the same day of blood collection for pharmacokinetic analysis by a ward nurse as part of a routine examination, during rest in a seated position with a calibrated and well-maintained automatic sphygmomanometer. Delayed graft function (DGF) was defined as failure of the kidney graft to function immediately, with the need for dialysis in the first 7 days post-KT. Episode of biopsy-proven acute rejection (BPAR) during 3 months post-KT was diagnosed based on histologic findings in indication kidney graft biopsy according to Banff 2015 criteria."}, "[2]": {"details": "diltiazem 30 mg three times daily; day 7 after KT; CYP3A5 expressers; cited from earlier work"}, "[3]": {"details": "day 3 post-transplantation, CYP3A5 expressers (n = 11), mean ± SD"}, "[4]": {"details": "day 3 post-transplantation, CYP3A5 non-expressers (n = 9), mean ± SD"}, "[5]": {"details": "day 7 post-transplantation, CYP3A5 expressers (n = 11), mean ± SD"}, "[6]": {"details": "day 7 post-transplantation, CYP3A5 non-expressers (n = 9), mean ± SD"}},
  "data": [
    {"smiles": "COc1ccc([C@@H]2Sc3ccccc3N(CCN(C)C)C(=O)[C@@H]2OC(C)=O)cc1", "note": "[Diltiazem]", "values": [
      {"measurement": "Diastolic blood pressure", "setting": "[1]; day 1 post-transplantation, CYP3A5 expressers (n = 11), mean ± SD", "result": "89.2 ± 13.3", "unit": "mmHg"},
      {"measurement": "Pulse rate", "setting": "[1]; day 1 post-transplantation, CYP3A5 expressers (n = 11), median (IQR)", "result": "82.0 (74.0, 86.0) bpm"},
      {"measurement": "Diastolic blood pressure", "setting": "[1]; day 1 post-transplantation, CYP3A5 non-expressers (n = 9), mean ± SD", "result": "87.4 ± 14.8", "unit": "mmHg"},
      {"measurement": "Pulse rate", "setting": "[1]; day 1 post-transplantation, CYP3A5 non-expressers (n = 9), median (IQR)", "result": "82.0 (73.0, 86.0) bpm"},
      {"measurement": "Diastolic blood pressure", "setting": "[1]; [3]", "result": "86.8 ± 13.5", "unit": "mmHg"},
      {"measurement": "Pulse rate", "setting": "[1]; [3]", "result": "86.6 ± 15.4", "unit": "bpm"},
      {"measurement": "Diastolic blood pressure", "setting": "[1]; [4]", "result": "84.3 ± 14.0", "unit": "mmHg"},
      {"measurement": "Pulse rate", "setting": "[1]; [4]", "result": "82.4 ± 7.2", "unit": "bpm"},
      {"measurement": "Diastolic blood pressure", "setting": "[1]; [5]", "result": "77.8 ± 13.3", "unit": "mmHg"},
      {"measurement": "Pulse rate", "setting": "[1]; [5]", "result": "80.2 ± 11.2", "unit": "bpm"},
      {"measurement": "Diastolic blood pressure", "setting": "[1]; [6]", "result": "81.0 ± 7.3", "unit": "mmHg"},
      {"measurement": "Pulse rate", "setting": "[1]; [6]", "result": "81.8 ± 8.6", "unit": "bpm"},
      {"measurement": "Effects on blood pressure", "setting": "[1]; diltiazem 60 mg/day, first week post-KT", "result": "No significant effects on blood pressure"},
      {"measurement": "Effect of diltiazem coadministration on tacrolimus dose-adjusted trough concentration (C0/D)", "setting": "[2]", "result": "Significantly higher"}
    ]}
  ]
}
